Test results from patent US20180085386A1, “URIDINE MONOPHOSPHATE AND TRIPHOSPHATE DERIVATIVES, COMPOSITIONS AND METHODS OF USE” (Tufts University, priority 2016, published 2018).

Key:
[1] = system: circulating cytokines in plasma of PSAPP mice; assay: Circulating cytokine levels in plasma of PSAPP mice (multiplex); type: in vivo, mouse; conditions: vs vehicle
Experimental: As part of the study described in Example 16, the levels of numerous cytokines in plasma of mice treated with vehicle or compound 5 were also evaluated. As described in Example 16, treatment was initiated when the mice were approximately 3 months old. PSAPP mice were treated for 100 days with daily injections of 10 μg/kg of compound 5 or vehicle. Following treatment and the fear conditioning task experiment, plasma was taken for multiplex cytokine analysis of circulating cytokine levels in vehicle-treated versus compound-treated PSAPP mice. Cytokine levels are assayed using a multi-plex system where beads are labelled with capture antibody specific for each analyte tested. Each bead set is coupled to a specific capture antibody and is distinguishable from beads coupled to a different capture antibody. Thus, the levels of each analyte can be evaluated and distinguished. […] In FIGS. 10-13, compound 5 is indicated along the x-axis as “compound”.
(§1) In this study, treatment of PSAPP mice commenced when the mice were pre-symptomatic. Specifically, treatment was initiated when the mice were approximately 3 months old. PSAPP mice were treated for 100 days with daily, intraperitoneal injections of 10 μg/kg of compound 5 or vehicle. Following treatment, mice were assessed for the following: concentration of circulating pro-inflammatory cytokines; amyloid beta load (e.g., plaque burden); and memory in a fear conditioning task for memory formation. The data provided in Example 18 is for 18 vehicle treated mice and 20 compound treated mice. The data provided for the vehicle-treated group is the average across those mice, and error bars depict the standard error (SEM). Similarly, the data provided for the compound-treated group is the average across those mice, and the error bars depict the SEM. Mice were first evaluated in the fear conditioning task experiment. Subsequently, plasma was taken for multiplex cytokine analysis of circulating levels of cytokine in the plasma. Finally, plaque burden was assessed in the cortex and hippocampus of the mice.
In this study, treatment of PSAPP mice commenced after the mice were already symptomatic. Specifically, treatment was initiated when the mice were approximately 6 months old. PSAPP mice were treated for 7 days with daily, intraperitoneal injections of 10 μg/kg of compound 5 or vehicle. Following treatment, mice were assessed for the following: concentration of circulating pro-inflammatory cytokines; amyloid beta load (e.g., plaque burden); and plaque size. The data provided in Example 19 is for 7 vehicle treated mice and 7 compound treated mice. The data provided for the vehicle-treated group is the average across those mice, and error bars depict the standard error (SEM). Similarly, the data provided for the compound-treated group is the average across those mice, and the error bars depict the SEM. Plasma was taken for multiplex cytokine analysis of circulating levels of cytokine in the plasma. Subsequently, plaque burden was assessed in the cortex (using Aβ40) and hippocampus (using Aβ42) of the mice, and plaque size was also assessed.

[2] = Cmax after effective dose of compound 5; conditions: mouse, in vivo, 10 ug/kg; effective dose of 10 μg/kg
PSAPP mice = assay: Plaque load in cortex and hippocampus by amyloid beta immunostaining; type: in vivo, mouse
Experimental: PSB0474 was systemically administered to PSAPP mice via intraperitoneal injection for 2, 4 and 6 consecutive days. In one group, prior to evaluation and following to administration for 6 consecutive days, treatment was suspended for two weeks (6+2 weeks group). Brains were then fixed and plaque load was evaluated by immunostaining with the amyloid beta specific antibodies: β1-40 and β1-42. Representative images of plaque load in cortex and hippocampus from animals that received injections of PSB0474 according to the foregoing injection schedules are shown in FIGS. 1(A)-(D). […] Whereas, when administration of PSB0474 was stopped for 2 weeks following six consecutive days of treatment (denoted as the 6+2 weeks group), β1-40 staining rebounded; although to a level lower than observed in mice treated with saline as a vehicle control. […] FIGS. 2C-2F depict data obtained following administration of different dosages of PSB0474.
To generate these graphs showing plaque load, mice were euthanized, brain sections cut and antibodies directed against Aβ42 were used to disclose Aβ plaques. Images were acquired digitally and an algorithm was applied to threshold the image so that plaques were isolated from the background. The algorithm then calculated the percent area of the field of view occupied by the plaques.
Brain samples were collected for Abeta analysis with immunostaining. Brains samples were collected after transcardial perfusion with phosphate buffer and 4% paraformaldehyde. Floating brain sections (40 micron) were collected using a microtome. Immunostaining for […] and Aβ42 were performed according to previously established protocol. Images with DAB staining were collected with brightfield microscopy and analyzed with ImageJ Macro. All data analysis and statistics were performed in GraphPad Prism 6.0.
In this study, treatment of PSAPP mice commenced when the mice were pre-symptomatic. Specifically, treatment was initiated when the mice were approximately 3 months old. PSAPP mice were treated for 100 days with daily, intraperitoneal injections of 10 μg/kg of compound 5 or vehicle. Following treatment, mice were assessed in a fear conditioning task for memory formation. Subsequently, plaque burden in the mice was also evaluated. The data provided in Examples 16 and 17 is for 19 vehicle treated mice and 22 compound treated mice. The data provided for the vehicle-treated group is the average across those mice, and error bars depict the standard error (SEM). Similarly, the data provided for the compound-treated group is the average across those mice, and the error bars depict the SEM.
as §1
In this study, treatment of PSAPP mice commenced after the mice were already symptomatic. Specifically, treatment was initiated when the mice were approximately 6 months old. […]

[3] = 10 μg/kg daily for 100 days, Example 18
[4] = 10 μg/kg daily for 100 days, Example 18, FIG. 10
[5] = 10 μg/kg i.p. daily for 7 days from ~6 months (symptomatic), Example 20, FIG. 16
[6] = 10 μg/kg i.p. daily for 100 days from ~3 months, Example 19, FIG. 14

O=c1ccn([C@@H]2O[C@H](CO)C(O)C2O)c(=O)n1Cc1noc2ccccc12 (stereo in doubt) [compound 5]
average plasma level of IFN-r [1, 3]: reduced
average plasma level of IL-1β [1, 3]: reduced
average plasma level of IL-2 [1, 3]: reduced
average plasma level of IL-3 [1, 3]: reduced
average plasma level of IL-5 [1, 3]: reduced
average plasma level of IL-6 [1, 3]: reduced
average plasma level of IL-7 [1, 3]: reduced
average plasma level of IL-9 [1, 3]: reduced
average plasma level of IL-13 [1, 3]: reduced
average plasma level of IL-17 [1, 3]: reduced
average plasma level of LIF [1, 3]: reduced
average plasma level of MIP-1α [1, 3]: reduced
average plasma level of MIP-1β [1, 3]: reduced
plasma level of Eotaxin [1, 3]: no or substantially no change
plasma level of G-CSF [1, 3]: no or substantially no change
plasma level of GM-CSF [1, 3]: no or substantially no change
plasma level of IL-1α [1, 3]: no or substantially no change
plasma level of IP-10 [1, 3]: no or substantially no change
plasma level of LIX [1, 3]: no or substantially no change
plasma level of M-CSF [1, 3]: no or substantially no change
plasma level of MCP-1 [1, 3]: no or substantially no change
plasma level of MIP-2 [1, 3]: no or substantially no change
plasma level of IL-4 [1, 4]: statistically significant reduction
plasma level of IL-10 [1, 4]: statistically significant reduction
plasma level of IL-12 (IL-12(p70)) [1, 4]: statistically significant reduction
plasma level of IL-12(p40) (p40 subunit alone) [1, 4]: does not reflect a change
plasma level of IL-10 [1, 5]: statistically significant reduction
plasma level of IL-12 (IL-12(p70)) [1, 5]: statistically significant reduction
plasma level of IL-13 [1, 5]: statistically significant reduction
plasma level of IL-17 [1, 5]: statistically significant reduction
plasma level of MIP-1a [1, 5]: statistically significant reduction
plasma level of MIP-1b [1, 5]: statistically significant reduction
plasma level of TNFα [1, 5]: statistically significant reduction
plasma level of IL-2 [1, 6]: statistically significant reduction
plasma level of IL-4 [1, 6]: statistically significant reduction
plasma level of IL-10 [1, 6]: statistically significant reduction
plasma level of IL-12 (IL-12(p70)) [1, 6]: statistically significant reduction
plasma level of IL-13 [1, 6]: statistically significant reduction
plasma level of IL-17 [1, 6]: statistically significant reduction
plasma level of MIP-1a [1, 6]: statistically significant reduction
plasma level of MIP-1b [1, 6]: statistically significant reduction
Cmax [2]: 13 nM
plaque size (PSAPP mice; 10 μg/kg i.p. daily for 7 days from ~6 months, Example 20, FIG. 17(B)): decrease
Amyloid beta accumulation in the cortex (PSAPP mice; 10 μg/kg i.p. daily for 7 days from ~6 months, using Aβ40, Example 20, FIG. 17(A) upper panel): decreased
Amyloid beta accumulation in the hippocampus (PSAPP mice; 10 μg/kg i.p. daily for 7 days from ~6 months, using Aβ42, Example 20, FIG. 17(A) lower panel): decreased
plaque burden (PSAPP mice; 10 μg/kg i.p. daily for 100 days from ~3 months of age, vs vehicle, Example 17, FIG. 9): reduced
Amyloid beta accumulation in the cortex (PSAPP mice; 10 μg/kg i.p. daily for 100 days from ~3 months, vs vehicle, Example 19, FIG. 15(A)): decreased
Amyloid beta accumulation in the hippocampus (PSAPP mice; 10 μg/kg i.p. daily for 100 days from ~3 months, vs vehicle, Example 19, FIG. 15(B)): decreased
size distribution of remaining plaques (PSAPP mice; 10 μg/kg i.p. once per day for 7 days, PS1/APP mice 26 weeks): significantly reduced
Aβ40 plaque burden (PSAPP mice; 10 μg/kg i.p. once per day for 7 days, PS1/APP mice 26 weeks, cortex, FIG. 6A): significantly reduced
